According to patent US9776990B2, “Isoindolone derivatives” (AbbVie Inc., priority 2012, dated 2017):
pEC50, pKi: −log10 of the molar value.

Assays:
BRD4 (BDI_K57-E168) = BRD4 (BDI_K57-E168) (Homo sapiens (Human), UniProt O60885); assay: TR-FRET bromodomain binding assay, BRD4 first bromodomain; conditions: His-tagged BD1, 100 nM Alexa647 probe
In short: (§1)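 His-tagged BRD4 BD1 or BD2 (8 nM) with Eu-anti-His antibody (1 nM) and Alexa647-labelled BET-inhibitor probe (100 nM BDI, 30 nM BDII); 50 μM−0.85 nM compound, 2% DMSO, phosphate buffer pH 6.0, 1 h at room temperature. TR-FRET IC50 by 4-parameter fit, converted to Ki using probe Kd.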

BRD4 (BDII_E352-M457) = BRD4 (BDII_E352-M457) (Homo sapiens (Human), UniProt O60885); assay: TR-FRET bromodomain binding assay, BRD4 second bromodomain; conditions: His-tagged BD2, 30 nM Alexa647 probe
In short: as §1

EJ-1 = assay: Proliferation panel assay, EJ-1; type: cell-based; conditions: EJ1, 120 h; Bladder, EJ-1, 5 days; read-out: Cellular Proliferation EC50
Description: (§2) The impact of compounds of the Examples on cancer cell proliferation was determined using the breast cancer cell line MX-1 (ATCC) in a 3-day proliferation assay. MX-1 cells were maintained in RPMI supplemented with 10% FBS at 37 C.° and an atmosphere of 5% CO2. For compound testing, MX-1 cells were plated in 96-well black bottom plates at a density of 5000 cells/well in 90 μl of culture media and incubated at 37° overnight to allow cell adhesion and spreading. Compound dilution series were prepared in DMSO via a 3-fold serial dilution from 3 mM to 0.1 μM. […]
(§3) Luminescence readings from the Cell Titer Glo assay were normalized to the DMSO treated cells and analyzed using the GraphPad Prism software with sigmoidal curve fitting to obtain EC50s. The minimum significant ratio (MSR) was determined to evaluate assay reproducibility (Eastwood et al., (2006) J Biomol Screen, 11: 253-261). The overall MSR was determined to be 2.1 and a moving MSR (last six run MSR overtime) has been <2.
(§4) The compound of Example 40 was tested for its impact on proliferation of a panel of cancer cell line types (with specific cell lines tested) as set out in (Table 2). […] Cell proliferation data were analyzed as described above in the MX-1 proliferation assay to obtain the EC50 for the compounds reported in Table 2.

D54MG = assay: Proliferation panel assay, D54MG; type: cell-based; conditions: 120 h, Glioblastoma, 5 days, read-out: Cellular Proliferation EC50
Description: as §2, §3, §4

FaDu = assay: Proliferation panel assay, FaDu; type: cell-based; conditions: Homo sapiens, 120 h, Head & Neck, 5 days, read-out: Cellular Proliferation EC50
Description: as §2, §3, §4

HepG2 = assay: Proliferation panel assay, HepG2; type: cell-based; conditions: Homo sapiens, 120 h; Hepatocellular, HepG2, 5 days; read-out: Cellular Proliferation EC50
Description: as §2, §3, §4

H1299 = assay: Proliferation panel assay, H1299; type: cell-based; conditions: Homo sapiens, NCI-H1299, 120 h; NSCLC, H1299, 5 days; read-out: Cellular Proliferation EC50
Description: as §2, §3, §4

HPAC = assay: Proliferation panel assay, HPAC; type: cell-based; conditions: Homo sapiens, 120 h, Pancreas, 5 days, read-out: Cellular Proliferation EC50
Description: as §2, §3, §4

SK-LMS-1 = assay: Proliferation panel assay, SK-LMS-1; type: cell-based; conditions: Homo sapiens, 120 h; Sarcoma, SK-LMS-1, 5 days; read-out: Cellular Proliferation EC50
Description: as §2, §3, §4

Compound `Cc1[nH]c(-c2cc(NS(C)(=O)=O)ccc2Oc2ccccc2)c2c1C(=O)CCC2` [Example 40, N-[3-(3-methyl-4-oxo-4,5,6,7-tetrahydro-2H-isoindol-1-yl)-4-phenoxyphenyl]methanesulfonamide] has a pKi (BRD4 (BDI_K57-E168)) of 7.82, a pKi (BRD4 (BDII_E352-M457)) of 7.37 and a pEC50 (EJ-1) of 6.23. It also gave a pEC50 (D54MG) of 6.68, a pEC50 (FaDu) of 6.74 and a pEC50 (HepG2) of 6.49. For the same compound, the pEC50 (H1299) was 6.44, the pEC50 (HPAC) was 6.54 and the pEC50 (SK-LMS-1) was 6.75.
